Assay results taken from PubChem BioAssay AID1259411 (Chemical Carcinogenesis Research Information System (CCRIS), 2018).
Calls of active or inactive are those of the source. No rule for the calls is given here.

Test system: rodent carcinogenicity bioassays, tumor incidence
Experiment: CCRIS carcinogenicity studies
Summary of the method: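 Archive of carcinogenicity, mutagenicity, tumor promotion and tumor inhibition results drawn from journals, NCI reports and other sources, expert-reviewed; covers 1985-2011 and is no longer updated.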

## CCN(N=O)C(=O)NCCO
Species: RAT, Strain/Sex: F344/FEMALE, Route: INTRAVESICULAR, Dose: 0, 3.6 MG 2/WK FOR 30 WK (STUDY DURATION: LIFETIME), Tumor Site: Type of Lesion: BLADDER: TUMOR, BRAIN: TUMOR
  carcinogen call: active; positive
Species: RAT, Strain/Sex: F344/FEMALE, Route: ORAL, Dose: 0, 37, 74 MG/L IN DRINKING WATER 5 D/WK FOR 30 WK (STUDY DURATION: LIFETIME), Dose: 0, 37, 74 MG/L IN DRINKING WATER 5 D/WK FOR 30 WK (STUDY DURATION: LIFETIME), Tumor Site: Type of Lesion: BLADDER: TUMOR, MAMMARY GLAND: TUMOR, UTERUS: TUMOR, NERVOUS SYSTEM: TUMOR, SKIN: TUMOR, MOUTH: TUMOR, Tumor Site: Type of Lesion: BLADDER: TUMOR, MAMMARY GLAND: TUMOR, UTERUS: TUMOR, NERVOUS SYSTEM: TUMOR, SKIN: TUMOR, MOUTH: TUMOR
  carcinogen call: active; positive
Species: RAT, Strain/Sex: F344/MALE, Route: GAVAGE, Dose: 0, 3.6 MG IN 0.2 ML ETHYL ACETATE/CORN OIL (1:1) 2/WK FOR 31 WK (TOTAL DOSE: 223 MG) (STUDY DURATION: 80 WK), Tumor Site: Type of Lesion: LUNG: CARCINOMA, ADENOMA, BRAIN: TUMORS, THYROID: CARCINOMA OR ADENOMA, PERITONEUM: MESOTHELIOMA, ZYMBAL GLAND: CARCINOM, Tumor Site: Type of Lesion: LUNG: CARCINOMA, ADENOMA, BRAIN: TUMORS, THYROID: CARCINOMA OR ADENOMA, PERITONEUM: MESOTHELIOMA, ZYMBAL GLAND: CARCINOM
  carcinogen call: active; positive
Species: RAT, Strain/Sex: F344/MALE, Route: ORAL, Dose: 0, 37, 74 MG/L IN DRINKING WATER 5 D/WK FOR 30 WK (STUDY DURATION: LIFETIME), Dose: 0, 37, 74 MG/L IN DRINKING WATER 5 D/WK FOR 30 WK (STUDY DURATION: LIFETIME), Tumor Site: Type of Lesion: LUNG: TUMOR, BLADDER: TUMOR, MESOTHELIUM: TUMOR, NERVOUS SYSTEM: TUMOR, SKIN: TUMOR, Tumor Site: Type of Lesion: LUNG: TUMOR, BLADDER: TUMOR, MESOTHELIUM: TUMOR, NERVOUS SYSTEM: TUMOR, SKIN: TUMOR
  carcinogen call: active; positive

## CCNC(=O)N(C)N=O
Species: RAT, Strain/Sex: F344/FEMALE, Route: GAVAGE, Dose: 0, 20, 40 UMOL/WK IN CORN OIL/ETHYL ACETATE (2: 1) FOR 30 WK (LOW DOSE) OR 15 WK (HIGH DOSE) FOR TOTAL DOSES OF 0, 0.6;, Dose: 0, 20, 40 UMOL/WK IN CORN OIL/ETHYL ACETATE (2: 1) FOR 30 WK (LOW DOSE) OR 15 WK (HIGH DOSE) FOR TOTAL DOSES OF 0, 0.6;, Tumor Site: Type of Lesion: NERVOUS SYSTEM: TUMOR, THYMUS: TUMOR
  carcinogen call: active; positive
Species: RAT, Strain/Sex: F344/FEMALE, Route: ORAL, Dose: 0, 20, 40 UMOL/WK IN DRINKING WATER FOR 30 WK FOR TOTAL DOSES OF 0, 0.6, 1.2 MMOL (STUDY DURATION: LIFETIME), Dose: 0, 20, 40 UMOL/WK IN DRINKING WATER FOR 30 WK FOR TOTAL DOSES OF 0, 0.6, 1.2 MMOL (STUDY DURATION: LIFETIME), Tumor Site: Type of Lesion: NERVOUS SYSTEM: TUMOR, KIDNEY: TUMOR
  carcinogen call: active; positive
Species: RAT, Strain/Sex: F344/MALE, Route: GAVAGE, Dose: 0, 20, 40 UMOL/WK IN CORN OIL/ETHYL ACETATE (2: 1) FOR 30 WK FOR TOTAL DOSES OF 0, 0.6, 1.2 MMOL (STUDY DURATION: LIFETI, Dose: 0, 20, 40 UMOL/WK IN CORN OIL/ETHYL ACETATE (2: 1) FOR 30 WK FOR TOTAL DOSES OF 0, 0.6, 1.2 MMOL (STUDY DURATION: LIFETI, Tumor Site: Type of Lesion: NERVOUS SYSTEM: TUMOR, TESTIS: MESOTHELIOMA
  carcinogen call: active; positive
Species: RAT, Strain/Sex: F344/MALE, Route: ORAL, Dose: 0, 20, 40 UMOL/WK IN DRINKING WATER FOR 30 WK FOR TOTAL DOSES OF 0, 0.6, 1.2 MMOL (STUDY DURATION: LIFETIME), Dose: 0, 20, 40 UMOL/WK IN DRINKING WATER FOR 30 WK FOR TOTAL DOSES OF 0, 0.6, 1.2 MMOL (STUDY DURATION: LIFETIME), Tumor Site: Type of Lesion: LUNG: TUMOR, NERVOUS SYSTEM: TUMOR
  carcinogen call: active; positive

## Cc1ccc2c(c1[N+](=O)[O-])C(=O)c1ccccc1C2=O
Species: MOUSE, Strain/Sex: B6C3F1/FEMALE, Route: ORAL, Dose: 0, 0.03, 0.06% IN DIET, Dose: 0, 0.03, 0.06% IN DIET, Tumor Site: Type of Lesion: LIVER: HEMANGIOSARCOMA
  carcinogen call: active; positive
Species: MOUSE, Strain/Sex: B6C3F1/MALE, Route: ORAL, Dose: 0, 0.03, 0.06% IN DIET, Dose: 0, 0.03, 0.06% IN DIET, Tumor Site: Type of Lesion: LIVER: HEMANGIOSARCOMA
  carcinogen call: active; positive
Species: RAT, Strain/Sex: F344/MALE, Route: ORAL, Dose: 0, 0.12, 0.06% IN DIET, Dose: 0, 0.12, 0.06% IN DIET, Tumor Site: Type of Lesion: LIVER: HEPATOCELLULAR CARCINOMA OR NEOPLASTIC NODULE, INTEGUMENTARY SYSTEM (SUBCUTANEOUS TISSUE): FIBROMA
  carcinogen call: active; positive

## OB(O)O
Species: MOUSE, Strain/Sex: B6C3F1/FEMALE, Route: ORAL, Dose: 0, 2500, 5000 PPM IN DIET FOR 103 WK (STUDY DURATION: 105 WK), Dose: 0, 2500, 5000 PPM IN DIET FOR 103 WK (STUDY DURATION: 105 WK)
  carcinogen call: inactive; negative
Species: MOUSE, Strain/Sex: B6C3F1/MALE, Route: ORAL, Dose: 0, 2500, 5000 PPM IN DIET FOR 103 WK (STUDY DURATION: 105 WK), Dose: 0, 2500, 5000 PPM IN DIET FOR 103 WK (STUDY DURATION: 105 WK)
  carcinogen call: inactive; negative

## CC(O)c1ccccc1 (centres undefined)
Species: MOUSE, Strain/Sex: B6C3F1/FEMALE, Route: GAVAGE, Dose: 0, 375, 750 MG/KG IN CORN OIL 5 D/WK FOR 103 WK (STUDY DURATION: 104 WK), Dose: 0, 375, 750 MG/KG IN CORN OIL 5 D/WK FOR 103 WK (STUDY DURATION: 104 WK)
  carcinogen call: inactive; negative
Species: MOUSE, Strain/Sex: B6C3F1/MALE, Route: GAVAGE, Dose: 0, 375, 750 MG/KG IN CORN OIL 5 D/WK FOR 103 WK (STUDY DURATION: 104 WK), Dose: 0, 375, 750 MG/KG IN CORN OIL 5 D/WK FOR 103 WK (STUDY DURATION: 104 WK)
  carcinogen call: inactive; negative
Species: RAT, Strain/Sex: F344/FEMALE, Route: GAVAGE, Dose: 0, 375, 750 MG/KG IN CORN OIL 5 D/WK FOR 103 WK (STUDY DURATION: 105 WK), Dose: 0, 375, 750 MG/KG IN CORN OIL 5 D/WK FOR 103 WK (STUDY DURATION: 105 WK)
  carcinogen call: inactive; negative
Species: RAT, Strain/Sex: F344/MALE, Route: GAVAGE, Dose: 0, 375, 750 MG/KG IN CORN OIL 5 D/WK FOR 103 WK (STUDY DURATION: 105 WK), Dose: 0, 375, 750 MG/KG IN CORN OIL 5 D/WK FOR 103 WK (STUDY DURATION: 105 WK), Tumor Site: Type of Lesion: KIDNEY: TUBULAR CELL ADENOMA, TUBULAR CELL ADENOMA OR ADENOCARCINOMA
  carcinogen call: active; positive

## COc1ccc2c3c1O[C@H]1[C@@H](O)C=C[C@H]4[C@@H](C2)N(C)CC[C@@]341
Species: MOUSE, Strain/Sex: B6C3F1/FEMALE, Route: ORAL, Dose: 0, 750, 1500, 3000 PPM IN DIET FOR UP TO 106 WK (STUDY DURATION: 106 WK), Dose: 0, 750, 1500, 3000 PPM IN DIET FOR UP TO 106 WK (STUDY DURATION: 106 WK)
  carcinogen call: inactive; negative
Species: MOUSE, Strain/Sex: B6C3F1/MALE, Route: ORAL, Dose: 0, 750, 1500, 3000 PPM IN DIET FOR UP TO 106 WK (STUDY DURATION: 106 WK), Dose: 0, 750, 1500, 3000 PPM IN DIET FOR UP TO 106 WK (STUDY DURATION: 106 WK)
  carcinogen call: inactive; negative
Species: RAT, Strain/Sex: F344/FEMALE, Route: ORAL, Dose: 0, 400, 800, 1600 PPM IN DIET FOR UP TO 106 WK (STUDY DURATION: 106 WK), Dose: 0, 400, 800, 1600 PPM IN DIET FOR UP TO 106 WK (STUDY DURATION: 106 WK)
  carcinogen call: inactive; negative
Species: RAT, Strain/Sex: F344/MALE, Route: ORAL, Dose: 0, 400, 800, 1600 PPM IN DIET FOR UP TO 106 WK (STUDY DURATION: 106 WK), Dose: 0, 400, 800, 1600 PPM IN DIET FOR UP TO 106 WK (STUDY DURATION: 106 WK)
  carcinogen call: inactive; negative

## O=[N+]([O-])c1ccc(O)cc1
Species: MOUSE, Strain/Sex: SWISS/FEMALE, Route: DERMAL, Dose: 0, 40, 80, 160 MG/KG IN ACETONE 3 D/WK FOR 78 WK (STUDY DURATION: 18 MO), Dose: 0, 40, 80, 160 MG/KG IN ACETONE 3 D/WK FOR 78 WK (STUDY DURATION: 18 MO)
  carcinogen call: inactive; negative
Species: MOUSE, Strain/Sex: SWISS/MALE, Route: DERMAL, Dose: 0, 40, 80, 160 MG/KG IN ACETONE 3 D/WK FOR 78 WK (STUDY DURATION: 18 MO), Dose: 0, 40, 80, 160 MG/KG IN ACETONE 3 D/WK FOR 78 WK (STUDY DURATION: 18 MO)
  carcinogen call: inactive; negative

## Nc1ccc(Oc2ccc(N)c(Cl)c2)cc1Cl
Species: RAT, Route: SUBCUTANEOUS, Tumor Site: Type of Lesion: EAR (CANAL)
  carcinogen call: active; positive
